Key:
lymphocyte ceramide = experiment: Lymphocyte ceramide by DAG (diacylglycerol) kinase assay in AIDS patients; format: in vivo, human
ceramide = experiment: Ceramide at muscle cell level in muscle biopsy homogenates of AIDS subjects; format: in vivo, human; conditions: muscle biopsy before treatment (baseline), individual patients and group mean
Protocol: (§1) Four subjects with AIDS were treated with 600 mg of AZT daily by mouth. Of these, two were also treated with L-carnitine 3 g daily. The total duration of the treatment was 6 months. Muscle biopsies were performed before and after treatment. The ceramide present at muscle cell level was determined before and after treatment, after sonicating and homogenizing the biopsy material. The viral load was determined in the same muscle homogenates, as described in Example 1.

HIV = experiment: Viral load in muscle biopsy homogenates of AIDS subjects; format: in vivo; conditions: individual patients and group mean
Protocol: The determinations were carried out prior to the combined treatment, while patients were taking only AZT (T0), after 4 weeks of therapy with the L-carnitine-AZT combination (T1) and one month after discontinuation of treatment with L-carnitine (T2), leaving the patients on AZT alone. TCD4 lymphocytes were measured by flow cytometry by means of a specific monoclonal antibody (number of lymphocytes per mm^3) and the apoptotic lymphocytes by flow cytometry after staining with propydium iodide, quantifying the cells with hypodiploid nuclei (number of lymphocytes per 50,000 cells). The viral load (number of viral particles per ml of serum) was determined by quantifying HVI-1 RNA by means of a polymerase chain reaction (Amplicor HIV detection system by Roche). The Wilcoxon test was used for the statistical processing.
as §1

Cc1cn([C@H]2C[C@H](N=[N+]=[N-])[C@@H](CO)O2)c(=O)[nH]c1=O [AZT, zidovudine]
levels of lymphocyte ceramide, T0 (lymphocyte ceramide; T0: prior to combination treatment, patients on AZT only, 13 patients): 48±8 pmol/10^6 lymphocytes | levels of lymphocyte ceramide, T2 (lymphocyte ceramide; T2: one month after discontinuation of L-carnitine, patients on AZT alone): 38±9 pmol/10^6 lymphocytes | Pre-treatment ceramide (pmoL/mg protein) (ceramide): 92 pmoL/mg protein | Post-treatment HIV (viral particles/mg protein) (HIV; muscle homogenate after 6 months, AZT 600 mg daily by mouth, with or without L-carnitine 3 g daily): 4,950 viral particles/mg protein | Pre-treatment HIV (viral particles/mg protein) (HIV; muscle homogenate before treatment (baseline)): 4,850 viral particles/mg protein

Source: US20040039054A1, “Use of L-carnitine and derivatives for reducing ceramide levels and potentiating antiretroviral drugs” (SIGMA-TAU INDUSTRIE, priority 1995, published 2004)
